Patent US20250243180A1, “TARGETED PROTEIN DEGRADATION” (Monte Rosa Therapeutics AG, priority 2023, published 2025)
pEC50: −log10 of the molar value. Like-named read-outs stand apart in the source and are kept apart here.

Tests used:
[1] = biological target: NEK7 (Homo sapiens (Human), UniProt Q8TDX7+Q96SW2); assay: NEK7 NanoBiT degradation assay in Cal51 NEK7 NanoBiT cell line; format: cell-based; conditions: Cal51 NEK7 NanoBiT cells, 24 hours; for Dmax: CAL-51
In short: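 EC50 comes from a 4-parameter fit of control-normalized luminescence. The luminescence reports HiBiT-NEK7 (endogenous knock-in) complemented by stably expressed LgBiT in Cal51 cells after 24 h compound exposure at 37 °C. Final concentrations ran 1 μM to 0.05 nM, with Endurazine substrate present in the medium throughout.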

[2] = biological target: CRBN-DDB1 (Homo sapiens (Human), UniProt Q96SW2); assay: Compound binding to CRBN by HTRF assay
In short: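 Ki calculated via Cheng-Prusoff from geometric-mean EC50 values, after normalizing the HTRF ratio to lenalidomide (active) and DMSO (neutral) controls. Compounds (11 points, 1:3 steps) incubated 30 min at ambient temperature with CRBN-DDB1 2.5 nM, anti-His Tb cryptate and Cy5-thalidomide tracer 100 nM.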

[3] = NEK7 degradation, read-out: NanoBiT Dmax
[4] = NEK7 degradation, read-out: NanoBiT DC50

Sequence of NEK7 (Q8TDX7 whole entry): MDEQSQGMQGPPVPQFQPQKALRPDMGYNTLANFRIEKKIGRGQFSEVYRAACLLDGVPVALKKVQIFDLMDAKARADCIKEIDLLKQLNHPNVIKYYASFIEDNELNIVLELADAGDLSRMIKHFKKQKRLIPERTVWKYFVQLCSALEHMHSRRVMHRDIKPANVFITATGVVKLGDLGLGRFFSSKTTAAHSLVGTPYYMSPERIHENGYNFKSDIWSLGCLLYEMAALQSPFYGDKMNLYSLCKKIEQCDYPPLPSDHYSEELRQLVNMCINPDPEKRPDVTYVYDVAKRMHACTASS
Sequence of NEK7 (Q96SW2 whole entry): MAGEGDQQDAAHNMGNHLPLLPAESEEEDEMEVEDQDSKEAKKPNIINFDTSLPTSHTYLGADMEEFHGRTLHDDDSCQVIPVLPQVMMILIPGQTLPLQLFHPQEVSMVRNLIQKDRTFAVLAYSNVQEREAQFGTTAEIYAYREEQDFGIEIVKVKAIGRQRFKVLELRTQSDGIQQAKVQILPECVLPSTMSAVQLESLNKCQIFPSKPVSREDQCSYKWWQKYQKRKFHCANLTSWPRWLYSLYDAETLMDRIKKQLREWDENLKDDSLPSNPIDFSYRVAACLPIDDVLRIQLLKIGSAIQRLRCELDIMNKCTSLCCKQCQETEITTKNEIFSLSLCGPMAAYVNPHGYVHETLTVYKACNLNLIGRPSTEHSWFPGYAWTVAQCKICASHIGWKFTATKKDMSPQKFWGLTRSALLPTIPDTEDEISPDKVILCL
Sequence of NEK7 (Q16531 2-1140 partner): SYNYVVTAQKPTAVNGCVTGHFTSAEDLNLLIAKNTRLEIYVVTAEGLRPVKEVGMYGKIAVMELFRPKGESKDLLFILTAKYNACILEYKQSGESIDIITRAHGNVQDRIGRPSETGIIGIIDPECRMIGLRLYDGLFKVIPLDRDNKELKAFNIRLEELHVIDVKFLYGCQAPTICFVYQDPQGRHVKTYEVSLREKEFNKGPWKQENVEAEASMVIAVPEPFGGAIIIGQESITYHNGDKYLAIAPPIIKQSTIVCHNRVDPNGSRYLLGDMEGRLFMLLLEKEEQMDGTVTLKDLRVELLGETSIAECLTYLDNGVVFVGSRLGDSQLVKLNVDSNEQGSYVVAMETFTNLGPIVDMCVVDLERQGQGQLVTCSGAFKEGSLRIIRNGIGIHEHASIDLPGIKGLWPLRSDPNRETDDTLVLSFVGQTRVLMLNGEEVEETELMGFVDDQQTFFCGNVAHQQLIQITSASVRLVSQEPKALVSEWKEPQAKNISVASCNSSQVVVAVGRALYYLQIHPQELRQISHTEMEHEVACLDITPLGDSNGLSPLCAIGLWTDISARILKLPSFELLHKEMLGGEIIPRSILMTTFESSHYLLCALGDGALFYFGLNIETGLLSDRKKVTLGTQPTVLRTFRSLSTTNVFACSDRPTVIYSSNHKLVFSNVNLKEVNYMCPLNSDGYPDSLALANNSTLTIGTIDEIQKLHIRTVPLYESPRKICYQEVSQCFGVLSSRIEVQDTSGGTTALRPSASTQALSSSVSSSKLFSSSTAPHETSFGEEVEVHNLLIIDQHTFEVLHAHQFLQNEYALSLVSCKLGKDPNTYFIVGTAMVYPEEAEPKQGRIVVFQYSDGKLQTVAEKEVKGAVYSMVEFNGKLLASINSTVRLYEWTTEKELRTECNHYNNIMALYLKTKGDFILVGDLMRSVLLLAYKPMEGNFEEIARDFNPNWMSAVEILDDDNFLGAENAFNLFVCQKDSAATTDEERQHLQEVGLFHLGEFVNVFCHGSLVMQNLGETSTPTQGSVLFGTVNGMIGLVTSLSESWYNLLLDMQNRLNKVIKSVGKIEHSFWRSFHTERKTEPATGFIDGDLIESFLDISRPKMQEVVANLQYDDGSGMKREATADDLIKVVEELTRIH
Sequence of CRBN-DDB1 (Q96SW2 whole entry): as the sequence (Q96SW2 whole entry) above
Sequence of CRBN-DDB1 (Q16531 whole entry partner): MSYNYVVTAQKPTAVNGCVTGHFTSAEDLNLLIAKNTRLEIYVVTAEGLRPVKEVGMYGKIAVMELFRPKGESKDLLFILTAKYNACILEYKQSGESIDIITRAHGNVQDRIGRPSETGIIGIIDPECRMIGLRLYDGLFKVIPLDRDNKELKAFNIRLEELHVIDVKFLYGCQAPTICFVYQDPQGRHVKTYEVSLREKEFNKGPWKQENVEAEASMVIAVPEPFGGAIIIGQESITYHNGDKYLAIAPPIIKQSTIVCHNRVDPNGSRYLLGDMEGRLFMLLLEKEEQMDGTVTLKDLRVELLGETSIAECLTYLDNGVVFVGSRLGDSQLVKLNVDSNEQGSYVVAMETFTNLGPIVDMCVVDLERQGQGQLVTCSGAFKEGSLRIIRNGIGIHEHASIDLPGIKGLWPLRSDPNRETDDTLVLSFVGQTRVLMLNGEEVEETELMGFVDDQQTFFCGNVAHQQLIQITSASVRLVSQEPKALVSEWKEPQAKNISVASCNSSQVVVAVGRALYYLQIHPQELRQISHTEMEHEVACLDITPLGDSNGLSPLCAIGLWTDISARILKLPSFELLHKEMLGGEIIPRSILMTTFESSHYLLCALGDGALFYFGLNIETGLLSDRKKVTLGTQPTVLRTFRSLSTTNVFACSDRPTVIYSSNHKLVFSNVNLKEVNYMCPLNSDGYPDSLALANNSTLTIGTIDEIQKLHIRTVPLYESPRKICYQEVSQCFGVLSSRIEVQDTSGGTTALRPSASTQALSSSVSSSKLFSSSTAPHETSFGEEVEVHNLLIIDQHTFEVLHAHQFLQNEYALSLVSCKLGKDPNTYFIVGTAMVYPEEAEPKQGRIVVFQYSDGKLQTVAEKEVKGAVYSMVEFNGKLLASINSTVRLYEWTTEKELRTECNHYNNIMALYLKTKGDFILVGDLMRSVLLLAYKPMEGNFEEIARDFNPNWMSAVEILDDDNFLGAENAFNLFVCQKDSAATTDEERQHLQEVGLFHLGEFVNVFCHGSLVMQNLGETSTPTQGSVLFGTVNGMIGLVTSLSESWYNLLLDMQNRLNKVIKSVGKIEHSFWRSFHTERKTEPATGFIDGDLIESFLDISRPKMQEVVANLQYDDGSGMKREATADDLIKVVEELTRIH

Structure (SMILES) | Dmax ([1]; read-out: NEK7 NanoBiT Dmax) [%] | Dmax [1, 3] [%] | DC50 ([1]; read-out: NEK7 NanoBiT DC50) [nM] | DC50 [1, 4] [nM] | pEC50 [2] | pEC50 ([2]; HTRF class, Cereblon binding)
CC(C)(C(=O)NCc1cc(Cl)c(C2CCC(=O)NC2=O)c(Cl)c1)c1ccnc2ccccc12 (stereo not drawn) [Compound 63] | 62 | 50 to 75 | 91 | ≤ 100 | 6.85 | 6.00 to 7.00
CC(C)(C(=O)NCc1cc(Cl)c(C2CCC(=O)NC2=O)c(Cl)c1)C1CCCO1 (stereo not drawn) [Compound 265, N-(3,5-dichloro-4-(2,6-dioxopiperidin-3-yl)benzyl)-2-methyl-2-(tetrahydrofuran-2-yl)propanamide] | 56 | 50 to 75 | 474 | 100 to 1000 | 7.05 | ≥ 7.00
Cn1ccc(C(C)(C)C(=O)NCc2cc(Cl)c(C3CCC(=O)NC3=O)c(Cl)c2)cc1=O (stereo not drawn) [Compound 75] | 92 | > 75 | 14 | ≤ 100 | 6.52 | 6.00 to 7.00
CC(C)(C(=O)NCc1cc(Cl)c(C2CCC(=O)NC2=O)c(Cl)c1)c1cnccn1 (stereo not drawn) [Compound 161] | 69 | 50 to 75 | 54 | ≤ 100 | 6.64 | 6.00 to 7.00
Cc1cncnc1C(C)(C)C(=O)NCc1cc(Cl)c(C2CCC(=O)NC2=O)c(Cl)c1 (stereo not drawn) [Compound 158] | 91 | > 75 | 8 | ≤ 100 | 6.49 | 6.00 to 7.00
CC(C)(C(=O)NCc1cc(Cl)c(C2CCC(=O)NC2=O)c(Cl)c1)c1ncncc1F (stereo not drawn) [Compound 8] | 93 | > 75 | 6 | ≤ 100 | 6.68 | 6.00 to 7.00
COc1conc1C(C)(C)C(=O)NCc1cc(F)c(C2CCC(=O)NC2=O)c(Cl)c1 (stereo not drawn) [Compound 268] | 88 | > 75 | 11 | ≤ 100 | 6.92 | 6.00 to 7.00
CC(C)(C(=O)NCc1cc(Cl)c(C2CCC(=O)NC2=O)c(Cl)c1)c1cc(F)[nH]c(=O)c1 (stereo not drawn) [Compound 59] | 87 | > 75 | 28 | ≤ 100 | 6.85 | 6.00 to 7.00
Cn1cc(C(C)(C)C(=O)NCc2cc(Cl)c(C3CCC(=O)NC3=O)c(Cl)c2)ccc1=O (stereo not drawn) [Compound 67] | 74 | 50 to 75 | 95 | ≤ 100 | 6.66 | 6.00 to 7.00
CC(C)(C(=O)NCc1cc(Cl)c(C2CCC(=O)NC2=O)c(Cl)c1)c1ccc(F)cn1 (stereo not drawn) [Compound 22] | 93 | > 75 | 4 | ≤ 100 | 6.92 | 6.00 to 7.00
CC(C)(C(=O)NCc1cc(Cl)c(C2CCC(=O)NC2=O)c(Cl)c1)c1cc(C2CC2)ncn1 (stereo not drawn) [Compound 151] | 60 | 50 to 75 | 88 | ≤ 100 | 6.32 | 6.00 to 7.00
CC(C)(C(=O)NCc1cc(Cl)c(C2CCC(=O)NC2=O)c(Cl)c1)c1ccc(NS(C)(=O)=O)cc1 (stereo not drawn) [Compound 50] | 88 | > 75 | 18 | ≤ 100 | 6.82 | 6.00 to 7.00
CC(C)(C(=O)NCc1cc(Cl)c(C2CCC(=O)NC2=O)c(Cl)c1)c1cnco1 (stereo not drawn) [Compound 122] | 73 | 50 to 75 | 56 | ≤ 100 | 6.64 | 6.00 to 7.00
Cc1coc(C(C)(C)C(=O)NCc2cc(F)c(C3CCC(=O)NC3=O)c(Cl)c2)n1 (stereo not drawn) [Compound 254] | 55 | 50 to 75 | 278 | 100 to 1000 | 6.92 | 6.00 to 7.00
CC(C)(C(=O)NCc1cc(Cl)c(C2CCC(=O)NC2=O)c(Cl)c1)c1nocc1C(F)(F)F (stereo not drawn) [Compound 220] | 91 | > 75 | 8 | ≤ 100 | 6.82 | 6.00 to 7.00
CC(C)(C(=O)NCc1cc(Cl)c(C2CCC(=O)NC2=O)c(Cl)c1)c1ccn(CC(F)(F)F)c(=O)c1 (stereo not drawn) [Compound 23] | 88 | > 75 | 22 | ≤ 100 | 6.66 | 6.00 to 7.00
CC(C)(C(=O)NCc1cc(Cl)c(C2CCC(=O)NC2=O)c(Cl)c1)c1cnc(C#N)nc1 (stereo not drawn) [Compound 13] | 73 | 50 to 75 | 56 | ≤ 100 | 6.70 | 6.00 to 7.00
CC(C)(C(=O)NCc1cc(Cl)c(C2CCC(=O)NC2=O)c(Cl)c1)c1cncc(F)c1 (stereo not drawn) [Compound 85] | 81 | > 75 | 11 | ≤ 100 | 7.40 | ≥ 7.00
Cc1ncc(C(C)(C)C(=O)NCc2cc(F)c(C3CCC(=O)NC3=O)c(Cl)c2)o1 (stereo not drawn) [Compound 281] | 67 | 50 to 75 | 179 | 100 to 1000 | 6.59 | 6.00 to 7.00
COc1nc(C(C)(C)C(=O)NCc2cc(Cl)c(C3CCC(=O)NC3=O)c(Cl)c2)ncc1C (stereo not drawn) [Compound 216] | 82 | > 75 | 21 | ≤ 100 | 7.00 | ≥ 7.00
CC(C)(C(=O)NCc1ccc(C2CCC(=O)NC2=O)c(Cl)c1)c1cccc(F)c1 (stereo not drawn) [Compound 25, N-(3-chloro-4-(2,6-dioxopiperidin-3-yl)benzyl)-2-(3-fluorophenyl)-2-methylpropanamide] | 87 | > 75 | 23 | ≤ 100 | 6.54 | 6.00 to 7.00
CC(C)(C(=O)NCc1cc(Cl)c(C2CCC(=O)NC2=O)c(Cl)c1)c1ccncc1F (stereo not drawn) [Compound 88] | 93 | > 75 | 4 | ≤ 100 | 6.96 | 6.00 to 7.00
COCc1ccc(C(C)(C)C(=O)NCc2cc(Cl)c(C3CCC(=O)NC3=O)c(Cl)c2)nn1 (stereo not drawn) [Compound 228] | 85 | > 75 | 18 | ≤ 100 | 6.82 | 6.00 to 7.00
CC(C)(C(=O)NCc1cc(Cl)c(C2CCC(=O)NC2=O)c(Cl)c1)c1ncc(C(F)(F)F)cn1 (stereo not drawn) [Compound 175] | 94 | > 75 | 6 | ≤ 100 | 6.55 | 6.00 to 7.00
CC(C)(C(=O)NCc1cc(Cl)c(C2CCC(=O)NC2=O)c(Cl)c1)c1cc(C(F)(F)F)on1 (stereo not drawn) [Compound 230, N-(3,5-dichloro-4-(2,6-dioxopiperidin-3-yl)benzyl)-2-methyl-2-(5-(trifluoromethyl)isoxazol-3-yl)propanamide] | 83 | > 75 | 23 | ≤ 100 | 6.96 | 6.00 to 7.00
CC(C)(C(=O)NCc1cc(Cl)c(C2CCC(=O)NC2=O)c(Cl)c1)c1nnc(C(F)(F)F)o1 (stereo not drawn) [Compound 208] | 56 | 50 to 75 | 345 | 100 to 1000 | 6.77 | 6.00 to 7.00
